Assay results as given in ChEMBL document CHEMBL5154869, “Discovery of 4-((E)-3,5-dimethoxy-2-((E)-2-nitrovinyl)styryl)aniline derivatives as potent and orally active NLRP3 inflammasome inhibitors for colitis” (Eur J Med Chem, 2022).
Calls of active or inactive are those of the source. The calls are words filed in the database; no cut-off is given here.

Key:
Mus musculus [1] = test: Anti-colitis activity against DSS-induced colitis C57BL/6 mouse model assessed as reduction in TNF-alpha level in colon at 10 to 20 mg/kg, po administered once a day and measured on day 8 by ELISA; type: functional, organism-based; conditions: dose 10-20 mg/kg, time 8.0 day
Mus musculus [2] = test: Anti-colitis activity against DSS-induced colitis C57BL/6 mouse model assessed as reduction in IL-1 beta level in colon at 10 to 20 mg/kg, po administered once a day and measured on day 8 by ELISA; type: functional, organism-based; conditions: dose 10-20 mg/kg, time 8.0 day
[3] = molecular target: NACHT, LRR and PYD domains-containing protein 3 (Mus musculus) (UniProt Q8R4B8); test: Inhibition of NLRP3 inflammasome activation in LPS-stimulated mouse J774.A1 cells assessed as reduction in pyroptosis at 10 uM pretreated for 4 hrs with LPS and for 30 mins with compound prior to ATP addition and measured after 30 mins by PI/Hoechst33342 staining based analysis; type: cell-based; conditions: time 60.0 min
Chain of NACHT, LRR and PYD domains-containing protein 3 (Mus musculus) (Q8R4B8 whole entry, the tested form may be a part): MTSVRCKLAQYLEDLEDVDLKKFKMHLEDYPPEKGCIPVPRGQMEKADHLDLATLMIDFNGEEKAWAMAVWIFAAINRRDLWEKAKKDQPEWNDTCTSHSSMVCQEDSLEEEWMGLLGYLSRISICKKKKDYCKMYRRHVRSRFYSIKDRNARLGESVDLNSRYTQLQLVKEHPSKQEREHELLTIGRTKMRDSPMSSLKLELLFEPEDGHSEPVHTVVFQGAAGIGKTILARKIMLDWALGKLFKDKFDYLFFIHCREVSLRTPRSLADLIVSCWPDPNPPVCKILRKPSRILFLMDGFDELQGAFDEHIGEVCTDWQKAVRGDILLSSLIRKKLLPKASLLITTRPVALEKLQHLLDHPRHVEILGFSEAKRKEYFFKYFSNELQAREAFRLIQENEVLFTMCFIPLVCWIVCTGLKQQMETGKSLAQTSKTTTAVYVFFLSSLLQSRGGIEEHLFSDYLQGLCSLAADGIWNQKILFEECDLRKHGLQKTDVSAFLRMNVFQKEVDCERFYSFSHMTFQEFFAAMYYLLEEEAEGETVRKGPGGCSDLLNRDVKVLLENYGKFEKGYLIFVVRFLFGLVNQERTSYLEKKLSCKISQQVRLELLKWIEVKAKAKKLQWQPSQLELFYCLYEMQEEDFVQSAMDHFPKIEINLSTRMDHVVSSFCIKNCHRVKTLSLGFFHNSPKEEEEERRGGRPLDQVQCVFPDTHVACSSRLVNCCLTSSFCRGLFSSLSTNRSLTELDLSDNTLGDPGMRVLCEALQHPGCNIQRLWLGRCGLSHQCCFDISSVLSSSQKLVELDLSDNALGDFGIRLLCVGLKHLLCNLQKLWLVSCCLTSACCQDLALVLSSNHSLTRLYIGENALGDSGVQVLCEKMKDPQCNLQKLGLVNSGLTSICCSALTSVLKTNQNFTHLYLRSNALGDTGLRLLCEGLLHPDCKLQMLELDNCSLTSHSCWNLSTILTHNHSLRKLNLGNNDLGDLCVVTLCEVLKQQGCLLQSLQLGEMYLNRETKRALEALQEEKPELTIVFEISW

[4] = Inhibition of LPS/nigericin-induced reactive oxygen species production in C57BL/6 mouse bone marrow-derived macrophages assessed as ROS level at 4 uM by DCFH-DA staining based flow cytometry (reference value: 33.51%); type: functional, BMDM; design: scale not given: the % may be the effect or the level left
Mus musculus [5] = test: Anti-colitis activity against DSS-induced colitis C57BL/6 mouse model assessed as reduction in decrease of goblet cells in colon at 10 to 20 mg/kg, po administered once a day and measured on day 8 by H and E staining based analysis; type: functional, organism-based; conditions: dose 10-20 mg/kg, time 8.0 day
[6] = molecular target: NACHT, LRR and PYD domains-containing protein 3 (Homo sapiens, UniProt Q96P20); test: Binding affinity to GFP-fused NLRP3 (unknown origin) expressed in HEK293T cells by MST assay; type: cell-based
Chain of NACHT, LRR and PYD domains-containing protein 3 (Homo sapiens, UniProt Q96P20) (Q96P20 whole entry, the tested form may be a part): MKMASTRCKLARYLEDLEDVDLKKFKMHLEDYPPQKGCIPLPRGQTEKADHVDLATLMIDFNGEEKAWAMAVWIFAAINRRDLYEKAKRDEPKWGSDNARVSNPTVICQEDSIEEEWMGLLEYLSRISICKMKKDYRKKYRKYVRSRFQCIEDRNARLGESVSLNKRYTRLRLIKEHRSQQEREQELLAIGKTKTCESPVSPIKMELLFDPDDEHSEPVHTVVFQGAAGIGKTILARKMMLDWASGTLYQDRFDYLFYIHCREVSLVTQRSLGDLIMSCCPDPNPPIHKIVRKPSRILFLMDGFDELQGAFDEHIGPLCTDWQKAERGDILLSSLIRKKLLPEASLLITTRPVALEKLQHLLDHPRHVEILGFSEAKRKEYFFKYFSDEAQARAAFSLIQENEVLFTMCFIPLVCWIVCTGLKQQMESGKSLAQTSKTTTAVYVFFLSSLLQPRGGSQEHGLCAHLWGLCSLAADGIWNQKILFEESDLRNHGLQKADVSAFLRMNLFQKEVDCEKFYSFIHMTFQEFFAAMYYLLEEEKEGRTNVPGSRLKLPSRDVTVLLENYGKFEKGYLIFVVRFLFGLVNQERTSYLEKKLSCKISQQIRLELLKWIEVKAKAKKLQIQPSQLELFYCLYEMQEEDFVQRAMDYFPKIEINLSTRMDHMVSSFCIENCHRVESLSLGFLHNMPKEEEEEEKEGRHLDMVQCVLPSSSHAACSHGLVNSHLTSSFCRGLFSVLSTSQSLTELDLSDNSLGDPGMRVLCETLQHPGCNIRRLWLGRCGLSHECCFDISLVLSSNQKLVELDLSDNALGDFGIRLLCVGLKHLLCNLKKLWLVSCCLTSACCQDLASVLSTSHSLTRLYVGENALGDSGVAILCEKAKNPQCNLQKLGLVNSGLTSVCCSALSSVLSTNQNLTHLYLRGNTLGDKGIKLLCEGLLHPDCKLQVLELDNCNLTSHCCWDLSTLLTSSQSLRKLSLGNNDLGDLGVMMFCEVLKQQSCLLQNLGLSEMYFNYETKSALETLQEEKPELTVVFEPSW

[7] = molecular target: NACHT, LRR and PYD domains-containing protein 3 (Mus musculus) (UniProt Q8R4B8); test: (§1) Inhibition of NLRP3 inflammasome activation in LPS/nigericin-treated C57BL/6 mouse bone marrow-derived macrophages assessed as reduction in cleaved IL-1 beta level in culture supernatants preincubated for 3 hrs with LPS and for 30 mins with compound prior to nigericin addition and measured after 30 mins by Western blot analysis; type: cell-based; conditions: BMDM, dose 0.5-2 µM, time 60.0 min, DDE = dose-dependent effect
[8] = molecular target: NACHT, LRR and PYD domains-containing protein 3 (Mus musculus) (UniProt Q8R4B8); test: as §1, with “inhibition of ASC oligomerization” for “reduction in cleaved IL-1 beta level in culture supernatants”; type: cell-based; conditions: BMDM, dose 0.5-2 µM, time 60.0 min, DDE = dose-dependent effect
[9] = molecular target: NACHT, LRR and PYD domains-containing protein 3 (Mus musculus) (UniProt Q8R4B8); test: (§2) Inhibition of NLRP3 inflammasome activation in LPS/ATP-treated C57BL/6 mouse bone marrow-derived macrophages assessed as reduction in IL-1beta secretion preincubated for 3 hrs with LPS and for 30 mins with compound prior to ATP addition and measured after 30 mins by ELISA; type: cell-based; conditions: BMDM, time 60.0 min
[10] = Metabolic stability in human hepatocytes assessed as intrinsic clearance by LC-MS/MS analysis; type: ADME, cell-based, Hepatocyte; conditions: read-out: CLH
[11] = molecular target: NACHT, LRR and PYD domains-containing protein 3 (Mus musculus) (UniProt Q8R4B8); test: (§3) Inhibition of NLRP3 inflammasome activation in LPS/MSU-treated C57BL/6 mouse bone marrow-derived macrophages assessed as reduction in IL-1beta secretion preincubated for 3 hrs with LPS and for 30 mins with compound prior to MSU addition and measured after 30 mins by ELISA; type: cell-based; conditions: BMDM, time 60.0 min
Mus musculus [12] = test: Anti-colitis activity against DSS-induced colitis C57BL/6 mouse model assessed as reduction in IL-6 level in colon at 10 to 20 mg/kg, po administered once a day and measured on day 8 by ELISA; type: functional, organism-based; conditions: dose 10-20 mg/kg, time 8.0 day
Mus musculus [13] = test: Anti-colitis activity against DSS-induced colitis C57BL/6 mouse model assessed as reduction in disease activity index administered po once a day; type: functional, organism-based; conditions: dose 10-20 mg/kg, DDE = dose-dependent effect
Mus musculus [14] = test: Anti-colitis activity against DSS-induced colitis C57BL/6 mouse model assessed as reduction in colon shortening at 10 to 20 mg/kg, po administered once a day; type: functional, organism-based; conditions: dose 10-20 mg/kg
[15] = molecular target: NACHT, LRR and PYD domains-containing protein 3 (Mus musculus) (UniProt Q8R4B8); test: (§4) Inhibition of NLRP3 inflammasome activation in LPS/nigericin-treated C57BL/6 mouse bone marrow-derived macrophages assessed as reduction in ASC-NLRP3 protein-protein interaction at 2 to 4 uM preincubated for 3 hrs with LPS and for 30 mins with compound prior to nigericin addition and measured after 30 mins by immunoprecipitation method; type: cell-based; conditions: BMDM, dose 2-4 µM, time 60.0 min
[16] = molecular target: NACHT, LRR and PYD domains-containing protein 3 (Mus musculus) (UniProt Q8R4B8); test: as §1, with “activated caspase 1(P20)” for “cleaved IL-1 beta”; type: cell-based; conditions: BMDM, dose 0.5-2 µM, time 60.0 min, DDE = dose-dependent effect
Mus musculus [17] = test: Anti-colitis activity against DSS-induced colitis C57BL/6 mouse model assessed as reduction in pathological index score of colon at 10 to 20 mg/kg, po administered once a day and measured on day 8 by H and E staining based analysis; type: functional, organism-based; conditions: dose 10-20 mg/kg, time 8.0 day
[18] = molecular target: NACHT, LRR and PYD domains-containing protein 3 (Mus musculus) (UniProt Q8R4B8); test: Binding affinity to NLRP3 in mouse J774.A1 cell lysates assessed as reduction in protein degradation at 50 uM incubated at 48 to 78 degC by CETSA; type: subcellular
[19] = Metabolic stability in human liver microsomes assessed as half life by LC-MS/MS analysis; type: ADME, Microsome
[20] = Cytotoxicity against human L02 cells assessed as reduction in cell viability incubated for 24 hrs by MTT assay; type: toxicity, cell-based
[21] = molecular target: NACHT, LRR and PYD domains-containing protein 3 (Mus musculus) (UniProt Q8R4B8); test: as §1, with “LPS/ATP-treated” for “LPS/nigericin-treated”, “activated caspase 1(P20)” for “cleaved IL-1 beta”, “ATP” for “nigericin”; type: cell-based; conditions: BMDM, time 60.0 min
Mus musculus [22] = test: Anti-colitis activity against DSS-induced colitis C57BL/6 mouse model assessed as reduction in body weight loss at 10 to 20 mg/kg, po administered once a day; type: functional, organism-based; conditions: dose 10-20 mg/kg
[23] = molecular target: NACHT, LRR and PYD domains-containing protein 3 (Mus musculus) (UniProt Q8R4B8); test: as §1, with “LPS/ATP-treated” for “LPS/nigericin-treated”, “ATP” for “nigericin”; type: cell-based; conditions: BMDM, time 60.0 min
[24] = molecular target: NACHT, LRR and PYD domains-containing protein 3 (Mus musculus) (UniProt Q8R4B8); test: as §4, with “NEK7-NLRP3” for “ASC-NLRP3”; type: cell-based; conditions: BMDM, dose 2-4 µM, time 60.0 min
[25] = molecular target: NACHT, LRR and PYD domains-containing protein 3 (Mus musculus) (UniProt Q8R4B8); test: as §1, with “LPS/MSU-treated” for “LPS/nigericin-treated”, “activated caspase 1(P20)” for “cleaved IL-1 beta”, “MSU” for “nigericin”; type: cell-based; conditions: BMDM, time 60.0 min
[26] = molecular target: NACHT, LRR and PYD domains-containing protein 3 (Mus musculus) (UniProt Q8R4B8); test: (§5) Inhibition of NLRP3 inflammasome activation in LPS/nigericin-treated C57BL/6 mouse bone marrow-derived macrophages assessed as reduction in IL-1beta secretion preincubated for 3 hrs with LPS and for 30 mins with compound prior to nigericin addition and measured after 30 mins by ELISA; type: cell-based; conditions: BMDM, time 60.0 min, DDE = dose-dependent effect
[27] = molecular target: NACHT, LRR and PYD domains-containing protein 3 (Mus musculus, UniProt Q8R4B8); test: as §5; type: cell-based, BMDM
Chain of NACHT, LRR and PYD domains-containing protein 3 (Mus musculus, UniProt Q8R4B8) (Q8R4B8 whole entry, the tested form may be a part): as the sequence (Q8R4B8 whole entry, the tested form may be a part) above

[28] = molecular target: NACHT, LRR and PYD domains-containing protein 3 (Mus musculus) (UniProt Q8R4B8); test: as §3, with “activated caspase 1(P20) level in cell lysates” for “IL-1beta secretion”, “Western blot analysis” for “ELISA”; type: subcellular; conditions: BMDM, time 60.0 min
[29] = Inhibition of LPS/nigericin-induced reactive oxygen species production in C57BL/6 mouse bone marrow-derived macrophages assessed as ROS level at 1 uM by DCFH-DA staining based flow cytometry (reference value: 33.51%); type: functional, BMDM; design: scale not given: the % may be the effect or the level left
[30] = molecular target: NACHT, LRR and PYD domains-containing protein 3 (Mus musculus) (UniProt Q8R4B8); test: as §1, with “LPS/MSU-treated” for “LPS/nigericin-treated”, “MSU” for “nigericin”; type: cell-based; conditions: BMDM, time 60.0 min
[31] = Metabolic stability in human liver microsomes assessed as intrinsic clearance by LC-MS/MS analysis; type: ADME, Microsome; conditions: read-out: CLH
[32] = molecular target: NACHT, LRR and PYD domains-containing protein 3 (Mus musculus) (UniProt Q8R4B8); test: as §2, with “activated caspase 1(P20) level in cell lysates” for “IL-1beta secretion”, “Western blot analysis” for “ELISA”; type: subcellular; conditions: BMDM, time 60.0 min
[33] = molecular target: NACHT, LRR and PYD domains-containing protein 3 (Mus musculus) (UniProt Q8R4B8); test: as §1, with “activated caspase 1(P20)” for “cleaved IL-1 beta”, “cell lysates at 0.5 to 2 uM” for “culture supernatants”; type: subcellular; conditions: BMDM, dose 0.5-2 µM, time 60.0 min, DDE = dose-dependent effect
[34] = Inhibition of LPS/nigericin-induced reactive oxygen species production in C57BL/6 mouse bone marrow-derived macrophages assessed as ROS level at 2 uM by DCFH-DA staining based flow cytometry (reference value: 33.51%); type: functional, BMDM; design: scale not given: the % may be the effect or the level left
[35] = molecular target: NACHT, LRR and PYD domains-containing protein 3 (Mus musculus) (UniProt Q8R4B8); test: Inhibition of NLRP3 inflammasome activation in LPS-stimulated mouse J774.A1 cells assessed as reduction in pyroptosis pretreated for 4 hrs with LPS and for 30 mins with compound prior to ATP addition and measured after 30 mins by PI/Hoechst33342 staining based analysis; type: cell-based; conditions: dose 2.5-10 µM, time 60.0 min, DDE = dose-dependent effect

In the case of `COc1cc(/C=C/c2ccc(NC(=O)c3ccco3)cc2)c(/C=C/[N+](=O)[O-])c(OC)c1`, the Activity (Mus musculus [1]) is reported as “Active”, the Activity (Mus musculus [2]) is reported as “Active” and the inhibition [3] is reported as 70.8%. For the same molecule, the Activity [4] was 29.01%, the Activity (Mus musculus [5]) was “Active” and the Kd [6] was 213 nM. The inhibition [7] was “Dde”, the inhibition [8] was “Dde” and the inhibition [9] was “Active”. The CLint scaled [10] was 7.4 mL/min/kg, the inhibition [11] was “Active” and the Activity (Mus musculus [12]) was “Active”. The Activity (Mus musculus [13]) was “Dde”, the Activity (Mus musculus [14]) was “Active” and the inhibition [15] was “Active”. The inhibition [16] was “Dde”, the Activity (Mus musculus [17]) was “Active” and the inhibition [18] was “Active”. The half-life [19] was 2.31 h, the IC50 at 24 h [20] was > 100000 nM and the inhibition [21] was “Active”. For the same molecule, the Activity (Mus musculus [22]) was “Active”, the inhibition [23] was “Active” and the inhibition [24] was “Active”. For the same molecule, the inhibition [25] was “Active”, the inhibition [26] was “Dde” and the IC50 [27] was 1230 nM. For the same molecule, the inhibition [28] was “Active”, the Activity [29] was 30.5% and the inhibition [30] was “Active”. The microsomal CLint [31] was 10 µL/min/mg, the inhibition [32] was “Active” and the inhibition [33] was “Dde”. For the same molecule, the Activity [34] was 29.79% and the inhibition [35] was “Dde”.
